tested on: Human immunodeficiency virus 1; assay: Antiviral activity against HIV1; assay type: functional, organism-based

How did the IC50 turn out when N=[S+]([O-])(C[C@H](Cc1ccccc1)C(=O)N[C@@H]1c2ccccc2C[C@@H]1O)C[C@H](Cc1ccccc1)C(=O)N[C@@H]1c2ccccc2C[C@@H]1O was run?
The IC50 was 408 nM.

target: Protease (Human immunodeficiency virus 1, UniProt Q9YQ12); assay: Inhibition of HIV1 recombinant protease
Sequence (Q9YQ12 whole entry): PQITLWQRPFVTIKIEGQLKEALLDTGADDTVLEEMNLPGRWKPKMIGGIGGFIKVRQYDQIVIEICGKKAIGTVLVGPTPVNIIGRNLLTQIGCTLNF

For N=[S+]([O-])(C[C@H](Cc1ccccc1)C(=O)N[C@@H]1c2ccccc2C[C@@H]1O)C[C@H](Cc1ccccc1)C(=O)N[C@@H]1c2ccccc2C[C@@H]1O, which IC50 is on record?
Its IC50 is 2.5 nM.

How did the IC50 turn out when N=[S+]([O-])([C@H](Cc1ccccc1)C(=O)N[C@H]1c2ccccc2C[C@H]1O)[C@@H](Cc1ccccc1)C(=O)N[C@H]1c2ccccc2C[C@H]1O was run?
The IC50 was 37.3 nM.

With O=C(N[C@H]1c2ccccc2C[C@H]1O)[C@H](Cc1ccccc1)C[S+]([O-])C[C@H](Cc1ccccc1)C(=O)N[C@H]1c2ccccc2C[C@H]1O as the molecule, how does the IC50 read?
Its IC50 is 53.1 nM.

Which IC50 does the source give for O=C(N[C@H]1c2ccccc2C[C@H]1O)[C@@H](Cc1ccccc1)C[S+]([O-])C[C@H](Cc1ccccc1)C(=O)N[C@H]1c2ccccc2C[C@H]1O here?
Its IC50 is over 10000 nM.

Which IC50 does the source give for O=C(N[C@@H]1c2ccccc2C[C@@H]1O)[C@@H](Cc1ccccc1)C[S+]([O-])C[C@H](Cc1ccccc1)C(=O)N[C@@H]1c2ccccc2C[C@@H]1O (single isomer, unassigned) here?
The IC50 was 21.1 nM.

For N=[S+]([O-])([C@H](Cc1ccccc1)C(=O)N[C@H]1c2ccccc2C[C@H]1O)[C@H](Cc1ccccc1)C(=O)N[C@H]1c2ccccc2C[C@H]1O, which IC50 is on record?
The IC50 was 154 nM.

target: Protease (Human immunodeficiency virus 1) (UniProt Q9YQ12); assay: Inhibition of HIV1 recombinant protease at 10 uM
Sequence (Q9YQ12 as listed by the source): as the sequence (Q9YQ12 whole entry) above

Which inhibition does the source give for O=C(N[C@H]1c2ccccc2C[C@H]1O)C(Cc1ccccc1)C[S+]([O-])CC(Cc1ccccc1)C(=O)N[C@H]1c2ccccc2C[C@H]1O (stereo partly specified) here?
Its inhibition is 75%.

Which inhibition does the source give for N=[S+]([O-])(C(Cc1ccccc1)C(=O)N[C@H]1c2ccccc2C[C@H]1O)C(Cc1ccccc1)C(=O)N[C@H]1c2ccccc2C[C@H]1O (stereo partly specified) here?
The inhibition was 87%.

O=C(N[C@H]1c2ccccc2C[C@H]1O)C(CSCC(Cc1ccccc1)C(=O)N[C@H]1c2ccccc2C[C@H]1O)Cc1ccccc1 (stereo partly specified) was tested. Which inhibition did it give?
Its inhibition is 15%.

O=C(N[C@H]1c2ccccc2C[C@H]1O)C(Cc1ccccc1)S(=O)(=O)C(Cc1ccccc1)C(=O)N[C@H]1c2ccccc2C[C@H]1O (stereo partly specified) was tested. Which inhibition did it give?
Its inhibition is 30%.

— ChEMBL document CHEMBL1137472, “Discovery of potent HIV-1 protease inhibitors incorporating sulfoximine functionality” (Bioorg Med Chem Lett, 2007)
